Data published in PMC11487561 (ACS Chemical Neuroscience, 2024).

How the values were obtained:
GABAA, Muscimol, Central = experiment: Lead Profiling Screen – Eurofins Panlabs; format: binding, rat
Phorbol Ester = experiment: Lead Profiling Screen – Eurofins Panlabs; format: binding, mouse
[1] = target: Transporter, Norepinephrine (NET) (Homo sapiens, UniProt P23975); experiment: Lead Profiling Screen – Eurofins Panlabs; format: binding; settings: read-out: % inh at 10 μM
CYP 2C9 = target: T1, CYP 2C9 (Homo sapiens, UniProt P11712); experiment: P450 inhibition in pooled human liver microsomes; format: in vitro ADME; settings: pooled HLM, NADPH, CYP-specific probe substrates
T1 construct: from tissue; host or cells: pooled human liver microsomes (according to the earlier reading)
T1 sequence (P11712 whole entry): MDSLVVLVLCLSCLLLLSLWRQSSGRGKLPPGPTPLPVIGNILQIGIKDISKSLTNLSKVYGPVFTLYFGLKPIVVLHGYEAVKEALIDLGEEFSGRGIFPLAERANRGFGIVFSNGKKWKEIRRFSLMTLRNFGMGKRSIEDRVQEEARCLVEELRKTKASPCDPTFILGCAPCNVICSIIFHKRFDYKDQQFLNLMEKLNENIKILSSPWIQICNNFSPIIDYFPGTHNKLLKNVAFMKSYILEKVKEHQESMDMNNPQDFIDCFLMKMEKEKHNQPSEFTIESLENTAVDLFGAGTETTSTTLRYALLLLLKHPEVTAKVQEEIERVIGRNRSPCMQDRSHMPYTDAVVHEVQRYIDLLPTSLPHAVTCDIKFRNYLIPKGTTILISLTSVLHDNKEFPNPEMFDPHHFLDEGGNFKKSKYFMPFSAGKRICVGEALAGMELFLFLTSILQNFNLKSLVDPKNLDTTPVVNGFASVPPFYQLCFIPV

Sigma σ1 = Sigma σ1 (Homo sapiens, UniProt Q99720); experiment: Lead Profiling Screen – Eurofins Panlabs; format: binding; settings: read-out: % inh at 10 μM
hNav1.5 (Tonic) = target: T2, hNav1.5 (Tonic) (Homo sapiens, UniProt Q14524); experiment: Cardiac Ion Channel Panel – Charles River (QPatch HT patch clamp); format: cell-based
T2 construct: Charles River Laboratories
T2 sequence (Q14524 whole entry): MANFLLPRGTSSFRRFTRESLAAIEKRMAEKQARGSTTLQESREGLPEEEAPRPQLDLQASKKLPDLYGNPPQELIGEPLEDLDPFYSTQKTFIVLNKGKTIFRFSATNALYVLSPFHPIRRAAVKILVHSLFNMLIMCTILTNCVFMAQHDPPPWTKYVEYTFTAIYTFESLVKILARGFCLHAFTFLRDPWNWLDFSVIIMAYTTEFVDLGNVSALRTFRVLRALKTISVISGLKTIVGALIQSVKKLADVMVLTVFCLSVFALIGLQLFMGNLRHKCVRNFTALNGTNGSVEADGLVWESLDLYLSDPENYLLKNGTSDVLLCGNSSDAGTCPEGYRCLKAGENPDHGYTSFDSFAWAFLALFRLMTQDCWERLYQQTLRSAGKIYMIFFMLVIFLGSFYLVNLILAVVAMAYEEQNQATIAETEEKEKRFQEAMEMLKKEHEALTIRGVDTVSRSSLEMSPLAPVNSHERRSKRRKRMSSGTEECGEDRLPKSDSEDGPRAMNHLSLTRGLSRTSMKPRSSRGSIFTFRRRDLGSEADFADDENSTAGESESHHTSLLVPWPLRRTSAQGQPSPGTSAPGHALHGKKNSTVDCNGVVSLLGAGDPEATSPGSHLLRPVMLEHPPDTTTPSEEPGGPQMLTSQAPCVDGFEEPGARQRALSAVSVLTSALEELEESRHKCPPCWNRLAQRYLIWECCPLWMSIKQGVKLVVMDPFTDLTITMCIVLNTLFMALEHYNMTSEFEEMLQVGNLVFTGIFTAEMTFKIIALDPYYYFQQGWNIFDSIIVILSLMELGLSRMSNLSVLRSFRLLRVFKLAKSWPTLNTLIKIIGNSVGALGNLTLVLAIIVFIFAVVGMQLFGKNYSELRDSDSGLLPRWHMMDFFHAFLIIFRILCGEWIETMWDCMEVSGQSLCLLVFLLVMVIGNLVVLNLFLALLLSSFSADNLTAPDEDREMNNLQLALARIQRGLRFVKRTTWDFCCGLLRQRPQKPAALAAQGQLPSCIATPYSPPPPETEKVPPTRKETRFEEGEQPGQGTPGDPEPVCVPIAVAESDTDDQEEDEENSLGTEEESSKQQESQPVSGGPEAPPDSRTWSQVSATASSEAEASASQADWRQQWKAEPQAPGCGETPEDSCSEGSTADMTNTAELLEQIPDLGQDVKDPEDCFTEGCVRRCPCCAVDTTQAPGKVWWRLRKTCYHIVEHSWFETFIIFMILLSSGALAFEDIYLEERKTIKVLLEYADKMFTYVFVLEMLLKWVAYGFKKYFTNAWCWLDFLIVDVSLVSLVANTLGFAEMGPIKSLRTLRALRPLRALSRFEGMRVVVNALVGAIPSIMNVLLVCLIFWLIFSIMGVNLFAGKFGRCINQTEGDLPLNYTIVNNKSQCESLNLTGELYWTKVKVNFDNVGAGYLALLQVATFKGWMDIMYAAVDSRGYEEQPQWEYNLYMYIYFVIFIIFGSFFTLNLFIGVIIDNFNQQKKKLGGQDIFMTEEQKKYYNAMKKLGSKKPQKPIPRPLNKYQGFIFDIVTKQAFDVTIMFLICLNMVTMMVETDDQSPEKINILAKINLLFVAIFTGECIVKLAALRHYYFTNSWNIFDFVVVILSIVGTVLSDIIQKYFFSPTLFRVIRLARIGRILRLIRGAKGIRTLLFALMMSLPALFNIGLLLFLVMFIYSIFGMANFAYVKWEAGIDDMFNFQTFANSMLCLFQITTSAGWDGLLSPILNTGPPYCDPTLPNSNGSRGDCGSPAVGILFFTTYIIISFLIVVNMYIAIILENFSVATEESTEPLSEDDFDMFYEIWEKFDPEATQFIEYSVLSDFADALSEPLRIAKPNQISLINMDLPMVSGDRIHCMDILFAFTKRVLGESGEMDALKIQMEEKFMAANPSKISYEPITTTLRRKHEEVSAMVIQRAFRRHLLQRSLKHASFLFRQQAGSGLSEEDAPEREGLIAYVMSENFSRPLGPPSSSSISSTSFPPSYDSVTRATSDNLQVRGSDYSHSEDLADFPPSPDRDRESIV
Method: (§1) page 17: Table S3. Cardiac Ion Channel Panel - Charles River Laboratories for VU6016235 Ion Channel Concentration Mean % Standard Standard n (μM) Inhibition Deviation Error hCav1.2 10 13.9 8.9 5.1 3 hCav3.2 10 6.7 2.7 1.4 4 hHCN2 10 2.6 1.9 1.1 3 hERG 10 10.9 0.9 0.4 4 hKv1.5 10 1.3 1.8 0.9 4 […] 10 4.1 5.6 2.8 4 hKv1.3 10 9 2.9 1.7 3 hNav1.5 (Tonic) 10 5.8 0.6 0.4 3 […] (Phasic) The in vitro effects of VU6016235 were evaluated at room temperature using the QPatch HT® (Sophion Bioscience A/S, Denmark), an automatic parallel patch clamp system. VU6016235 was evaluated at a concentration of 10 μM and tested in at least 3 cells (n ≥ 3). The duration of exposure to each test article concentration was at least 5 minutes. Rat Amphetamine-Induced Hyperlocomotion (AHL) Protocol Male Harlan Sprague Dawley rats with a mean body weight of 240 g (range 221-264 g) were tested in SmartFrame Open Field locomotor activity test chambers to automatically record locomotor activity. All […] for an additional 30 min with either vehicle or a dose of VU6016235 or the comparator M 4 PAM […] Next, rats were injected subcutaneously with vehicle or a dose of 0.75 mg/kg amphetamine and then monitored for an additional 60 min. Changes in locomotor activity were recorded for a total of 120 min. Locomotor data were expressed as the number of photobeam breaks/5 min intervals across the 120-min test session or as the total ambulation, calculated as sum of photobeam beam breaks from the time of amphetamine administration (60 min) until the end of the study (120 min). Time course data were analyzed by two-way ANOVA with main effects of treatment and time; changes in total ambulation were analyzed by one-way ANOVA followed by Dunnett's post hoc test (GraphPad Prism 7 [GraphPad Software, San Diego, CA]). For all tests, α ≤ 0.05 was considered to represent statistical significance. Finally, percent reversal data were calculated in Microsoft Excel using the following formula: Percent Reversal = 100 - {[(total ambulation in individual animal from t = 60 to t = 120) / (mean total ambulation S17

hCav3.2 = target: T3, hCav3.2 (Homo sapiens, UniProt O95180); experiment: as above; format: cell-based
T3 construct: Charles River Laboratories
Method: as §1

hCav1.2 = target: T4, hCav1.2 (Homo sapiens, UniProt Q13936); experiment: as above; format: cell-based
T4 construct: Charles River Laboratories
Method: as §1

hKvLQT1/minK = target: T5, hKvLQT1/minK (Homo sapiens, UniProt P51787); experiment: as above; format: cell-based
T5 construct: Charles River Laboratories
Method: as §1

hERG = target: T6, hERG (Homo sapiens, UniProt Q12809); experiment: as above; format: cell-based
T6 construct: Charles River Laboratories
T6 sequence (Q12809 whole entry): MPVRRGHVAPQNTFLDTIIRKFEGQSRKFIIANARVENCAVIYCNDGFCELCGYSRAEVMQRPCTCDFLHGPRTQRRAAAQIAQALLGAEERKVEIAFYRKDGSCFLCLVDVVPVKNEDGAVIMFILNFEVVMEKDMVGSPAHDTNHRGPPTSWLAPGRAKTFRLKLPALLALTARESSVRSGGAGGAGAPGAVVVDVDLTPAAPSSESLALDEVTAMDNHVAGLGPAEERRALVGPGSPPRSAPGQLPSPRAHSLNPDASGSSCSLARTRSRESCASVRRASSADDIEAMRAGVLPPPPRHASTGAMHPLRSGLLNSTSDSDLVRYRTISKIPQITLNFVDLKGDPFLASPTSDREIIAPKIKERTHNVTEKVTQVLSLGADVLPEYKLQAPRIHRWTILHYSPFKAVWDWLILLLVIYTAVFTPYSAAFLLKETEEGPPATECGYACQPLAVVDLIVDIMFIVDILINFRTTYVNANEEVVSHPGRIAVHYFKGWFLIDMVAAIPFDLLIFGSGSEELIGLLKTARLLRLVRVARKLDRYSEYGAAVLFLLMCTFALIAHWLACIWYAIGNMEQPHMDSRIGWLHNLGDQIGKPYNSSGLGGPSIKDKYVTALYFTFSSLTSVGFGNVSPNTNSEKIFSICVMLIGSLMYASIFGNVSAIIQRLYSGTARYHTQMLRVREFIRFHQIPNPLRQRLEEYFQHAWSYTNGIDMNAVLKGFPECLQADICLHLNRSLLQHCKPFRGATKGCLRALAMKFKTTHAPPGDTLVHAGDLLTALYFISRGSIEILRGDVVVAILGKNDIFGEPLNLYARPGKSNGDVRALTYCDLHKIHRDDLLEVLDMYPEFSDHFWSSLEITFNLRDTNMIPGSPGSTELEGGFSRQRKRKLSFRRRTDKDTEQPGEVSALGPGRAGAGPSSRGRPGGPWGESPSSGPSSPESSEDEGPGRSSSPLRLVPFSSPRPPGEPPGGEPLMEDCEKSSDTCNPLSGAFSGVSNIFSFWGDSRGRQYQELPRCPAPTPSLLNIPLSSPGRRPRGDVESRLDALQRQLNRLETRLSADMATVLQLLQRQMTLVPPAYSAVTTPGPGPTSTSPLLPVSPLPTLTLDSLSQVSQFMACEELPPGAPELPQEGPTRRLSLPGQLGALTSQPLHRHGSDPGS
Method: as §1

hKv1.5 = target: T7, hKv1.5 (Homo sapiens, UniProt P22460); experiment: as above; format: cell-based
T7 construct: Charles River Laboratories
Method: as §1

hNav1.5 (Phasic) = target: T8, hNav1.5 (Phasic) (Homo sapiens, UniProt Q14524); experiment: as above; format: cell-based
T8 construct: Charles River Laboratories
Method: as §1

hHCN2 = target: T9, hHCN2 (Homo sapiens, UniProt Q9UL51); experiment: as above; format: cell-based
T9 construct: Charles River Laboratories
T9 sequence (Q9UL51 whole entry): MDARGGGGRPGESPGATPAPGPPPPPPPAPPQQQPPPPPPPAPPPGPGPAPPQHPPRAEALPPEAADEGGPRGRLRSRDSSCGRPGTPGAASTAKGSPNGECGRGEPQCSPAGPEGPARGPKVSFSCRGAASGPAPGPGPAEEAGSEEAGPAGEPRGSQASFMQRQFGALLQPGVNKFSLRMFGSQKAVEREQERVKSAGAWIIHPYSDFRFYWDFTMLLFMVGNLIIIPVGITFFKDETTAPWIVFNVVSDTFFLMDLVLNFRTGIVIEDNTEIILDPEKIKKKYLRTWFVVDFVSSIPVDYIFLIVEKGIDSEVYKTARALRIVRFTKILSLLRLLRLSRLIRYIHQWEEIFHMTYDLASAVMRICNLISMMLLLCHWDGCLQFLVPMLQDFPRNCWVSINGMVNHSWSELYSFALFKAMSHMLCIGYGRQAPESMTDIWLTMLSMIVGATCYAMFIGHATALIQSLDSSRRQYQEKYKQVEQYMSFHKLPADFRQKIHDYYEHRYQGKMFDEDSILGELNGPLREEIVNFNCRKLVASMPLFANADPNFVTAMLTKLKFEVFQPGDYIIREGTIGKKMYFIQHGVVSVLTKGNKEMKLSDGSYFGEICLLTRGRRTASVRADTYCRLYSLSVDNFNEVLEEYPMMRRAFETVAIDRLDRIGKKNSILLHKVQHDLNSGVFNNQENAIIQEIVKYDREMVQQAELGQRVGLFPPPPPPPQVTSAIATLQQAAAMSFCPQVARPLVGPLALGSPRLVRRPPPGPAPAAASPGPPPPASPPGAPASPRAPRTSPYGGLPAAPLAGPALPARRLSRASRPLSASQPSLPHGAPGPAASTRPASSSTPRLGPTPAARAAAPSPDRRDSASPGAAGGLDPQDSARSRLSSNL
Method: as §1

hKv1.3 = target: T10, hKv1.3 (Homo sapiens, UniProt P22001); experiment: as above; format: cell-based
T10 construct: Charles River Laboratories
T10 sequence (P22001 whole entry): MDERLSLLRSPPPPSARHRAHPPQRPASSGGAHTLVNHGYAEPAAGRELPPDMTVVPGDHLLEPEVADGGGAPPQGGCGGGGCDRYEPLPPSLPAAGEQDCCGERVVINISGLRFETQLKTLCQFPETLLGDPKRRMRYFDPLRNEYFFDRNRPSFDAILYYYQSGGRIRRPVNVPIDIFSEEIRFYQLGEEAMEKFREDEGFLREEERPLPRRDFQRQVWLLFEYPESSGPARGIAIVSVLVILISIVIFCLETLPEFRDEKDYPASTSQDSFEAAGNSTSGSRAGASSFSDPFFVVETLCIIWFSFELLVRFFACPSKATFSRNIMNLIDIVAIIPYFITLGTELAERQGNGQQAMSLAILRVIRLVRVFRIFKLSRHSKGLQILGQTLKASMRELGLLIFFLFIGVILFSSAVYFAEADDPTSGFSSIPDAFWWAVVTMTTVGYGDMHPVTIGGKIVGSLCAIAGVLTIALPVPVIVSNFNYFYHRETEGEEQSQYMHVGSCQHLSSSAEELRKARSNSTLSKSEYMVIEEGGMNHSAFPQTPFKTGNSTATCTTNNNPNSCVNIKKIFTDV
Method: as §1

Estrogen ERα = target: T11, Estrogen ERα (Homo sapiens, UniProt P03372); experiment: Lead Profiling Screen – Eurofins Panlabs; format: binding; settings: read-out: % inh at 10 μM
T11 construct: Eurofins Panlabs (contract screen)

Adrenergic β2 = target: T12, Adrenergic β2 (Homo sapiens, UniProt P07550); experiment: Lead Profiling Screen – Eurofins Panlabs; format: binding; settings: read-out: % inh at 10 μM
T12 construct: Eurofins Panlabs (contract screen)

Dopamine D4.2 = experiment: Lead Profiling Screen – Eurofins Panlabs; format: binding, human

With `Cc1nc(C)c2c(n1)sc1c(NCc3ccc(C(C)(C)O)cc3)nccc12` [22g] the “% inh at 10 μM” value (GABAA, Muscimol, Central) was 1%, the “% inh at 10 μM” value (Phorbol Ester) was -1% and the inhibition at 10 µM [1] was 26%. For the same compound, the IC50 (CYP 2C9) was 17 µM, the inhibition at 10 µM (Sigma σ1) was 3% and the inhibition at 10 µM (hNav1.5 (Tonic)) was 5.8%. For the same compound, the inhibition at 10 µM (hCav3.2) was 6.7%, the inhibition at 10 µM (hCav1.2) was 13.9% and the inhibition at 10 µM (hKvLQT1/minK) was 4.1%. It also gave an inhibition at 10 µM (hERG) of 10.9%, an inhibition at 10 µM (hKv1.5) of 1.3% and an inhibition at 10 µM (hNav1.5 (Phasic)) of 6.9%. It also gave an inhibition at 10 µM (hHCN2) of 2.6%, an inhibition at 10 µM (hKv1.3) of 9% and an inhibition at 10 µM (Estrogen ERα) of -8%. For the same compound, the inhibition at 10 µM (Adrenergic β2) was -5% and the “% inh at 10 μM” value (Dopamine D4.2) was 4%.
